In patent US20230381273A1, “NANOPARTICLE IN WHICH ANTIBACTERIAL PEPTIDE IS ENCAPSULATED WITH CHITOSAN AND USE THEREOF” (NATIONAL MARINE BIODIVERSITY INSTITUTE OF KOREA, priority 2022, published 2023):
Values after ≈ are worked out from the molar mass of the structure shown. Peptide text beside a SMILES is read from it.

Assays:
Assay type in all cases: cell-based
[1] = MTT cell viability assay (cytotoxicity); details: human, HEK293 cells
Procedure: After treating HEK293 cells with octominin-CNP and octominin, MTT (3-(4,5-dimethylthiazol-2-yl)-2,5-diphenyltetrazolium bromide) assay was performed to confirm cell viability.
First, HEK293 cells were cultured using DMEM (Dulbecco's modified Eagle's medium (Sigma-Aldrich, Munich, Germany)) containing 10% (v/v) fetal bovine serum (FBS, (Sigma-Aldrich, Munich, Germany)) and antibiotic-antimycotic (Thermo Fisher Scientific, Waltham, MA, USA). In addition, it was cultured for 24 hours under humidified conditions of 5% CO2 and 37° C. The cells were collected and seeded in a 96-well microplate at a cell density of 2.0×10^5 cells/mL (100 μL/well) and allowed to adhere to the well for 12 hours. The culture medium was then replaced, and they were treated with octominin-CNP (0 to 400 μg/mL) or octominin (0 to 400 μg/mL). After 24 hours of culture, the culture medium was replaced with fresh medium (90 μL), and 10 μL of MTT ([…]) was added to each well, followed by incubation at 37° C. for 4 hours. Then, 50 μL of DMSO was added to the wells in which the culture medium was eradicated to solubilize the resulting formazan dye. Their absorbances were measured at 595 nm using a microplate spectrophotometer (Bio-Rad, Saint Louis, (MO, USA)).

[2] = test system: Acinetobacter baumannii
Procedure: (§1) Prior to confirming the antibacterial and antifungal activity of octominin-CNP or free octominin, for the antibacterial activity of octominin against Acinetobacter baumannii (A. baumannii) through preliminary analysis, it was confirmed that minimum inhibitory concentration (MIC) was 5 μg/mL, and the minimum bactericidal concentration (MBC) was 10 μg/mL. In addition, for the antifungal activity against Candida albicans (C. albicans), it was confirmed that the MIC was 50 μg/mL and the minimum fungicidal concentration (MFC) was 200 μg/mL. Accordingly, the antibacterial and antifungal activities of octominin-CNP and free octominin against A. baumannii and C. albicans were confirmed at the MIC and MBC/MFC peptide concentrations.

[3] = test system: Candida albicans
Procedure: as §1

## CC[C@H](C)[C@H](NC(=O)[C@H](C)NC(=O)[C@H](CCCCN)NC(=O)CNC(=O)[C@H](C)NC(=O)[C@H](Cc1c[nH]cn1)NC(=O)[C@@H](NC(=O)[C@H](C)NC(=O)CNC(=O)[C@H](CCCNC(=N)N)NC(=O)[C@@H](NC(=O)[C@H](CC(C)C)NC(=O)[C@H](Cc1c[nH]c2ccccc12)NC(=O)CN)[C@@H](C)CC)[C@@H](C)CC)C(=O)N[C@@H](Cc1c[nH]cn1)C(=O)NCC(=O)N[C@@H](CC(C)C)C(=O)N[C@H](C(=O)N[C@@H](Cc1c[nH]cn1)C(=O)N[C@@H](CCCNC(=N)N)C(=O)N[C@@H](CCCNC(=N)N)C(=O)N[C@@H](CCCNC(=N)N)C(=O)N[C@@H](Cc1c[nH]cn1)C(=O)O)[C@@H](C)CC [octominin] (H-GWLIRGAIHAGKAIHGLIHRRRH-OH)
[1]
  viability at 24 h, 400 µg/mL: 85.2%
[2]
  minimum bactericidal concentration (MBC): 10 µg/mL (≈ 3.81 µM)
  minimum inhibitory concentration (MIC): 5 µg/mL (≈ 1.9 µM)
[3]
  MIC: 50 µg/mL (≈ 19 µM)
  minimum fungicidal concentration (MFC): 200 µg/mL (≈ 76.2 µM)
